Measured values: patent publication US12041933B1, “N-(pyrimidin-2-ylcarbamothioyl) benzamide as an eco-friendly insecticidal agent against Spodoptera littoralis (BOISD.)” (KING FAISAL UNIVERSITY, priority 2023, dated 2024)
≈ marks a conversion by molar mass, not a printed value. Read-outs that look alike come from different tables or passages of the source.

Tested on: cotton leafworm, S. littoralis
Experiment: Insecticidal bioassay screening (castor leaf dip), second and fourth instar larvae, laboratory strain
Type: in vivo
Details: for Toxicity index %: 72 hrs, Diflubenzuron's LC50/compound's LC50 × 100; for LC50: Spodoptera littoralis, foliar
Protocol: Five concentrations (200, 100, 50, 25, 12.5 ppm) were designed for this synthetic compound and the reference Diflubenzuron compound as the dynamic ingredients based on mg/L via diluting the commercial formulation.
In this experiment, castor leaves are immersed in each of the previously prepared concentrations of the components for 10 seconds and then left to dry for 60 minutes. Larvae of the second and fourth instars of each checked strain are prepared with treated leaves in gauze-covered glass containers for 72 hrs. An untreated control is made in which leaves are dipped in triton x-100 and distilled water only. Then the preserved leaves were removed & fresh, untreated leaves were provided for 72 hours. Three replicates (10 larvae each) were checked for each concentration. Daily inspection was carried out for all treatments and mortality percentages were recorded 3 days (72 hours) after treatment. The average mortality percentage was corrected employing Abbott's formula. The corrected mortality rate for each of the previously synthesized compounds is statistically calculated according to Finney (1970). Through this rate, the corresponding concentration test lines (LDP lines) are assessed.

[1] = 72 h, read-out: LC50 (mg/L) at 95%, 2nd instar larvae, after 72 hrs of treatment
[2] = 72 h, read-out: LC50 (mg/L) at 95%, 4th instar larvae, after 72 hrs of treatment
[3] = against Spodoptera littoralis under laboratory conditions, instar not stated

| SMILES | Toxicity index % (2nd instar larvae) | Toxicity index % (4th instar larvae) | LC50 (72 h, 4th instars of larvae, after 72 hours of treatment) | LC50 [1] | LC50 [2] | LC50 [3] |
| --- | --- | --- | --- | --- | --- | --- |
| O=C(NC(=S)Nc1ncccn1)c1ccccc1 [Compound 3, N-(Pyrimidin-2-ylcarbamothioyl) benzamide] | 16.7% | 22.8% | ~631 mg/L (≈ 2440 µM) | ~96.8 mg/L (≈ 375 µM) | 631 mg/L (≈ 2440 µM) | 96.8 mg/L (≈ 375 µM) |
| O=C(NC(=O)c1c(F)cccc1F)Nc1ccc(Cl)cc1 [Diflubenzuron, reference compound] | 100% | 100% |  | 45.2 mg/L (≈ 145 µM) | 144 mg/L (≈ 464 µM) | 45.2 mg/L (≈ 145 µM) |
